Assay results reported in ChEMBL document CHEMBL2321830 (J Med Chem, 2013).
Where a chain is given by its changes, count along the chain named.

Columns and labels:
[1] = molecular target: T1, Prostaglandin G/H synthase 2 (Mus musculus, UniProt Q05769)
T1 sequence (Q05769 whole entry): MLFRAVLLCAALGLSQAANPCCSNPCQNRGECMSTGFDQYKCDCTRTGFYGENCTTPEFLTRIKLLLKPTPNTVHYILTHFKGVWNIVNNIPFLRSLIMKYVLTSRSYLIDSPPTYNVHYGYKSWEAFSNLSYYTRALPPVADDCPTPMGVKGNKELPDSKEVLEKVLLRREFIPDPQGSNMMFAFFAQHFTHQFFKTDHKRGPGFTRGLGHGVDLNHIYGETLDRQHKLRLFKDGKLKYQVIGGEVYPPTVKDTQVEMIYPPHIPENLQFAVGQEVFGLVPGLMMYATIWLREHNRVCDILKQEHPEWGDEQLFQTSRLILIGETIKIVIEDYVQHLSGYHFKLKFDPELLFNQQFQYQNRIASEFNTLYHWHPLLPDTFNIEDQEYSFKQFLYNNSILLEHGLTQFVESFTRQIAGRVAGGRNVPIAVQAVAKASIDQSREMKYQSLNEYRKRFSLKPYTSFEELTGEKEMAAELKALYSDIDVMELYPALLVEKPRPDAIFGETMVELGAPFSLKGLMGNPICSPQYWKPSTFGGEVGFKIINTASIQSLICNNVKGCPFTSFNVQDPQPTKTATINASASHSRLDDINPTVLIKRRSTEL
Description: Inhibition of wild type mouse COX2 by discontinuous radioactive TLC assay

[2] = molecular target: T2, Aldo-keto reductase family 1 member C3 (Homo sapiens, UniProt P42330); assay: Inhibition of human recombinant AKR1C3-mediated NADP+-dependent oxidation of S-(+)-1,2,3,4-tetrahydro-1-naphthol
T2 sequence (P42330 whole entry): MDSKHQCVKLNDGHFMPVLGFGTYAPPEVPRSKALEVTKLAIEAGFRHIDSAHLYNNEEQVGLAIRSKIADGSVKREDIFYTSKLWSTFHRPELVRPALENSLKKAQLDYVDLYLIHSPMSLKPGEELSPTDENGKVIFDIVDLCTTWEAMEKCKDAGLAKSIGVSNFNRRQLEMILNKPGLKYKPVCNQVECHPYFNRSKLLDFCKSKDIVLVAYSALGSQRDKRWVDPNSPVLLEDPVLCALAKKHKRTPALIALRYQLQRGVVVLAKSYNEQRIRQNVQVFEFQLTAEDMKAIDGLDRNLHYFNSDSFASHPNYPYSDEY

[3] = molecular target: T3, Aldo-keto reductase family 1 member C2 (Homo sapiens, UniProt P52895); assay: Inhibition of human recombinant AKR1C2-mediated NADP+-dependent oxidation of S-(+)-1,2,3,4-tetrahydro-1-naphthol
T3 sequence (P52895 whole entry): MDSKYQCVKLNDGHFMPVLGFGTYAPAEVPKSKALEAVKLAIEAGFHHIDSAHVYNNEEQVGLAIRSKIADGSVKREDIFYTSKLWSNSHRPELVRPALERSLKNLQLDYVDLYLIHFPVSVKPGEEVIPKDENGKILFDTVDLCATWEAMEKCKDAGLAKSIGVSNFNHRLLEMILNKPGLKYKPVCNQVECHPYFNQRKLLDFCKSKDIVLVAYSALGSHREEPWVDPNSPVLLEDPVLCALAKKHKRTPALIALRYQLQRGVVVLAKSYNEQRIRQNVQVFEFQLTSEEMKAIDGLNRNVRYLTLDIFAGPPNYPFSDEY

[4] = molecular target: T4, Prostaglandin G/H synthase 1 (Ovis aries, UniProt P05979)
T4 sequence (P05979 whole entry): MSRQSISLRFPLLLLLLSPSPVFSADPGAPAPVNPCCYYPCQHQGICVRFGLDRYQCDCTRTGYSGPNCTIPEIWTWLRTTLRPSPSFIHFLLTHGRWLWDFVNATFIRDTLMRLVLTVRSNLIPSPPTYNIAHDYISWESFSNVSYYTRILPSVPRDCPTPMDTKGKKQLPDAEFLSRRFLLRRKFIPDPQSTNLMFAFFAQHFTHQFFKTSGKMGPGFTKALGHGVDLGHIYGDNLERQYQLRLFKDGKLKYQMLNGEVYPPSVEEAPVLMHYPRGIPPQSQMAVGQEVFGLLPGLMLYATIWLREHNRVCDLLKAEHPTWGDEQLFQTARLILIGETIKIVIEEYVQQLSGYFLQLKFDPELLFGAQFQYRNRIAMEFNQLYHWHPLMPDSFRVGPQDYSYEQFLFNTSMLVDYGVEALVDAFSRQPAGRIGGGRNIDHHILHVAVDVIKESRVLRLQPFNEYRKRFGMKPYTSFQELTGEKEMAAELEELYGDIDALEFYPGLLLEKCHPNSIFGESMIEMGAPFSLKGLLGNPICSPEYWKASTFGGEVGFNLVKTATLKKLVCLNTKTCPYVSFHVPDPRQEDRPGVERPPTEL
Description: Inhibition of ovine COX1 by discontinuous radioactive TLC assay

[5] = molecular target: T5, Aldo-keto reductase family 1 member C1 (Homo sapiens, UniProt Q04828); assay: Inhibition of human recombinant AKR1C1-mediated NADP+-dependent oxidation of S-(+)-1,2,3,4-tetrahydro-1-naphthol
T5 sequence (Q04828 whole entry): T3 sequence (P52895 whole entry) with V38T, H47R, V54L, S87C, M151V, H170R, L172Q

Row | IC50 [1] [µM] | IC50 [2] [µM] | IC50 [3] [µM] | Compound | IC50 [4] [µM] | IC50 [5] [µM]
1 | 7 |  |  | CCc1c(CCC(=O)O)n(C(=O)c2ccc(Cl)cc2)c2ccc(OC)cc12 |  | 
2 | 0.09 | 0.25 | 6.19 | Cc1c(CC(=O)O)c2cc(F)ccc2n1C(=O)c1ccc(Cl)cc1 | 0.49 | 

Row | Compound | IC50 [1] [µM] | IC50 [2] [µM] | IC50 [3] [µM] | IC50 [4] [µM] | IC50 [5] [µM]
3 | COc1ccc2c(c1)c(CC(=O)O)cn2C(=O)c1ccc(Cl)cc1 | 3.27 |  |  | 15.3 | > 100
